From patent publication US20110053835A1, “ANTIMICROBIAL PEPTIDES DERIVED FROM CAP18” (OctoPlus Sciences B.V., priority 2004, published 2011)
Values after ≈ are worked out from the molar mass of the structure shown. Where two headings read alike, the source gives them in different places. Marks after values point to notes of the source that are not given here.

Legend:
[1] = tested on: LPS; test: LPS neutralization, whole blood (WB) assay; format: cell-based; details: ± SD
Protocol: (§1) The compounds prepared according to example 1 were tested for their capability to neutralize the bacterial toxin LPS with a limulus amoebocyte lysate (LAL) assay and with a whole blood (WB) assay. LTA neutralization was also measured with a whole blood assay. Peptide LL-37 was used as a positive control. The peptide concentration whereby 50% LPS is neutralized was used as a measure of the peptide's activity. These concentration values were as in table 1. The differences between the compounds within each assay were not statistically significant.

[2] = tested on: P. aeruginosa ATCC9027
Protocol: (§2) The in vitro antibacterial and antifungal activity of P60.4-Ac and LL-37 were determined as the minimum inhibitory concentrations (MIC) by a microdilution susceptibility test in 96-well microtiter plates, according to a modified version of R. Hancock's “Modified MIC method for cationic antimicrobial peptides” [13]. The antibacterial activity was tested on the reference strains Escherichia coli ATCC 8739, Pseudmonas aeruginosa ATCC 9027. The antifungal activity was evaluated on Candida albicans ATCC 10231 and Aspergillus niger ATCC 14406. The antimicrobial activity assay was conducted with different concentrations of P60.4Ac and LL-37 to compare their effects on the bacterial or fungal growth. Antibacterial activity was examined using log-phase cultured bacteria in Trypticase Soy Broth at 37° C. The cultures were diluted with 10 mM Sodium Phosphate buffer pH 7.4 to give approximately 5.0×10^6 CFU/ml. 10 μl of the diluted test strain was transferred to a 96-well plate and 100 μl of the different peptide concentrations was added to each well. The plates were incubated at 37° C. for 24 hours and are then scored for growth by visual inspection on a light box. They are then returned for incubation for a further 24 hours after which time they are re-evaluated for growth. The yeast strain C. albicans was prepared as described above. The filamentous fungi A. niger was used as a spore suspension, cultured on Sabourauds Dextrose Agar plates at 20-25° C. for 6-10 days or until adequate sporulation has occurred. The spores were harvested by scrapping and if necessary the concentration was adjusted to a final concentration of 5×10^6 CFU/ml.

[3] = tested on: Escherichia coli ATCC 8739; details: mean of three determinations
Protocol: as §2

[4] = tested on: Candida albicans ATCC 10231
Protocol: as §2

[5] = tested on: Aspergillus niger ATCC 14406
Protocol: as §2

[6] = tested on: peripheral blood mononuclear cells (PBMC); test: γ-IFN Elispot assay; format: cell-based; details: fraction of positive stimulation indices (positive: >2), 48 hours of culture
Protocol: (§3) The compounds prepared according to example 1 were tested for their therapeutically undesirable immunogenic activity by using Elispot, T-cell proliferation, ERK-activation, and neutrophil chemotaxis assays. The Elispot assay is applicable to determine effects of drugs, chemicals or other compounds on cytokine secretion in vitro, thereby providing data on their putative modulatory effects on immune function in vivo. The results of the assay are given as fraction of positive responses to IFN-gamma. […] Cytokines are direct mediators of inflammation and influence the progress and direction of many immunological reactions. Perturbation of the balance in cytokine production is widely recognized as a critical factor in several disease states. This balance is already disturbed in the case of conditions such as otitis media with effusion and sinusitis. T. cell proliferation is also not favorable in this situation, because this will also stimulate the immune response that is already out of control.
(§4) For T cell proliferation, 150,000 peripheral blood mononuclear cells (PBMC) were cultured in the absence or presence of 10 μg/ml of the compounds for 5 days in 96 well round bottom plates (Costar Inc. Cambridge, Mass.) in a final volume of 150 μl IMDM complete. As a positive control, PBMC were cultured in the presence of 25 U/ml recombinant IL-2. During the final 20 hours of culture, PBMC were pulsed with [3H]thymidine (0.5 microCi/well), after which 3H-incorporation was measured by liquid scintillation counting. For detection of the T cell cytokines IFN and IL-10 by Elispot analysis, 1.5×10^6 PBMC were cultured in 0.5 ml IMDM complete in the absence or presence of various concentrations of synthetic peptide. As a positive control PBMC were stimulated by 10 μg/ml poke weed mitogen (PWM). After 48 hours of culture, PBMC were harvested by gently rinsing the wells with warm IMDM to collect non-adherent cells, which were washed in a large volume of IMDM. PBMC were subsequently plated on antibody-precoated ELISA plates and cultured for 5 hours in IMDM supplemented with 2% pooled human AB serum at 37° C. 5% CO2, after which the plates were developed according to the manufacturer's protocol (U-CyTech, Utrecht, The Netherlands), Spots were counted on an Olympus microscope and analyzed with Olympus Micro Image 4.0 software (Paes Nederland, Zoeterwoude, The Netherlands). The final results are expressed as fraction of positive stimulation indices (positive: >2).

[7] = tested on: peripheral blood mononuclear cells (PBMC); test: T cell proliferation ([3H]thymidine incorporation); format: cell-based; details: fraction of positive stimulation indices (positive: >2), 10 μg/ml compound, 5 days
Protocol: as §3, §4

[8] = tested on: LPS; test: LPS neutralization, limulus amoebocyte lysate (LAL) assay; format: biochemical; details: ± SD
Protocol: as §1

[9] = tested on: neutrophils isolated from peripheral blood; test: Neutrophil chemotaxis (modified Boyden chamber); format: cell-based; details: percentage neutrophils on the membrane compared to positive control 10^−8 M FMLP; 90 minutes at 37° C.
Protocol: Neutrophils chemotaxis was measured with neutrophils isolated from peripheral blood using Percoll density centrifugation (density: 1.082 g/ml). The cells were resuspended at a concentration of 2.5×10^6 cells/ml in chemotaxis medium (20 mM N-2-hydroxyethylpiperazine-N′-2-ethanesulfonic acid (HEPES buffer) HEPES, 132 mM NaCl, 6 mM KCl, 1.2 mM KH2PO4, 1 mM MgSO4, 5.5 mM glucose, 0.1 mM CaCl2 and 0.5% (wt/vol) human serum albumm [Central Laboratory of the Netherlands Red Cross Blood Transfusion Service (CLB), Amsterdam, The Netherlands] diluted 1:1 with serum-free RPMI. The chemotactic activity of the compounds was assessed using a modified Boyden Camber technique. Briefly, 26 μl stimuli diluted in HEPES buffer was added to the wells of the lower compartment, and 50 μl of neutrophil suspension (2.5×10^6 cells/ml) was added to the upper compartment. The compartments were separated by two filters: a lower filter with a pore size of 0.45 μm (Millipore Products, Bedford, Mass.) and an upper filter with a pore size of 8 μm (Sartorius Filter, San Francisco, Calif.). After incubation for 90minutes at 37° C., the upper filters were removed, fixed in ethanol-butanol (80:20, vol/vol), and stained with Weigert solution. To determine neutrophil chemotactic activity, neutrophils were counted in six random high-power fields (×400), and the percentage neutrophils on the membrane as compared to the positive control (10^−8 M, N-formylmethionyl-leucyl-phenylalanine (FMLP, Sigma) was calculated.

[10] = tested on: LTA; test: LTA neutralization, whole blood (WB) assay; format: cell-based; details: ± SD
Protocol: as §1

[11] = tested on: rats; test: Single and repeated dose intravenous systemic toxicity study; format: in vivo, rat
Protocol: The systemic toxicity of P60.4Ac was assessed in a single and repeated dose toxicity study in rats. The peptide was administered daily intravenously in escalating doses. In this phase, the Maximum Tolerated Dose (MTD) was established. Repeated dose toxicity was also studied in the MTD phase. In the dose escalation phase, 9 rate were divided in three groups and received 0.4, 2 or 8 mg/kg/day for two days. Clinical signs were recorded twice daily on days of dosing and one day after dosing, body weights were recorded prior to the first dose and one day after dosing. In the MTD phase, 5 female and 5 male rats received 8 mg/kg/day for 5 following days. Clinical signs were recorded twice daily on days of dosing, body weight on day 1 and 6. Clinical laboratory investigations were performed prior to necropsy. Macroscopy was performed at termination of the MTD phase.

[12] = tested on: rabbits; details: 0.5 ml peptide solution 2 mg/ml on clipped skin for 4 hours, semi-occlusive; observed 1-72 hours
Protocol: (§5) For the skin and eye irritation tests, three rabbits were exposed to 0.5 ml phosphate buffered peptide solution (2 mg/ml), applied onto clipped skin for 4 hours using a semi-occlusive dressing. Observations were made 1, 24, 48, and 72 hours after exposure. Single samples of 0.1 ml of phosphate buffered (pH7.5) peptide solution (2 mg/ml) were instilled into one eye of each of three rabbits to perform an acute eye irritation/corrosion study. Observations were made 1, 24, 48, and 72 hours after instillation.

[13] = tested on: rabbits
Protocol: as §5

[14] = tested on: guinea pigs; format: in vivo, guinea pig
Protocol: The skin was sutured closed and follow-up auditory testing was performed.
Auditory brainstem response (ABR) was performed prior to drug administration and directly after surgery and 3, 7, 14 and 22 days later, using a computer-based signal averaging system (Tucker-Davis Technology, Alucha, Fla., USA). Guinea pigs were anesthetized and an insert earphone was placed into the external ear canal. […] Ground electrodes were placed over the neck muscles. […] Stimulus intensities were measured and expressed as dB.

[15] = P. aeruginosa ATCC9027, incubation 24 h
[16] = P. aeruginosa ATCC9027, incubation 48 h
[17] = E. coli ATCC8739, incubation 24 h
[18] = E. coli ATCC8739, incubation 48 h
[19] = C. albicans ATCC10231, incubation 24 h
[20] = C. albicans ATCC10231, incubation 48 h
[21] = A. niger ATCC14406, incubation 24 h
[22] = A. niger ATCC14406, incubation 48 h
[23] = intravenous, 8 mg/kg/day for 5 days
[24] = intravenous, 0.4, 2 or 8 mg/kg/day for two days

Compound | Compound concentration for 50% LPS-neutralization, LPS (WB) [1] [µg/mL] | MIC [2, 15] [µM] | MIC [2, 16] | MIC [3, 17] [µM] | MIC [3, 18] | MIC [4, 19] [µM] | MIC [4, 20] | MIC [5, 21] [µM] | MIC [5, 22] | γ-IFN Elispot [6] | T cell proliferation [7] | Compound concentration for 50% LPS-neutralization, LPS (LAL) [8] [µg/mL] | Chemotaxis (%) [9] [%] | Compound concentration for 50% LTA-neutralization, LTA (WB) [10] [µg/mL] | other results
CC[C@H](C)[C@H](NC(=O)[C@H](CCCCN)NC(=O)[C@H](CCC(=O)O)NC(=O)[C@H](CCCCN)NC(=O)[C@H](CO)NC(=O)[C@H](CCCCN)NC(=O)[C@H](CCCNC(=N)N)NC(=O)[C@H](Cc1ccccc1)NC(=O)[C@H](Cc1ccccc1)NC(=O)[C@H](CC(=O)O)NC(=O)CNC(=O)[C@H](CC(C)C)NC(=O)[C@@H](N)CC(C)C)C(=O)NCC(=O)N[C@@H](CCCCN)C(=O)N[C@@H](CCC(=O)O)C(=O)N[C@@H](Cc1ccccc1)C(=O)N[C@@H](CCCCN)C(=O)N[C@@H](CCCNC(=N)N)C(=O)N[C@H](C(=O)N[C@H](C(=O)N[C@@H](CCC(N)=O)C(=O)N[C@@H](CCCNC(=N)N)C(=O)N[C@H](C(=O)N[C@@H](CCCCN)C(=O)N[C@@H](CC(=O)O)C(=O)N[C@@H](Cc1ccccc1)C(=O)N[C@@H](CC(C)C)C(=O)N[C@@H](CCCNC(=N)N)C(=O)N[C@@H](CC(N)=O)C(=O)N[C@@H](CC(C)C)C(=O)N[C@H](C(=O)N1CCC[C@H]1C(=O)N[C@@H](CCCNC(=N)N)C(=O)N[C@H](C(=O)N[C@@H](CCC(=O)O)C(=O)N[C@@H](CO)C(=O)O)[C@@H](C)O)C(C)C)[C@@H](C)CC)C(C)C)[C@@H](C)CC [LL-37, reference compound] | 1.2 ± 0.3 | 3 (≈ 13.5 µg/mL) | 14^d μM | 3 (≈ 13.5 µg/mL) | 7^b μM | 12 (≈ 53.9 µg/mL) | >18^e μM | >18 | >18^e μM | 4/8 | 6/8 | 1.3 ± 0.2 | 84 ± 17 | 1.6 ± 0.5 | activity against A. niger ([5]; up to 18 μM): no activity
IGKEFERIVQRIKDFLRNLVPRTE [Compound P60, 24 amino acid peptide derived from CAP18/LL-37] | 1.4 ± 0.1 |  |  |  |  |  |  |  |  | 1/8 | 7/8 | 1.5 ± 0.5 | 76 ± 39 | 2.1 ± 0.7 | 
IGKEFKRIVERIKRFLRELVRPLR [Compound P60.4] | 2.1 ± 0.6 |  |  |  |  |  |  |  |  | 3/8 | 2/8 | 1.7 ± 0.6 | 0 ± 0 | 2.0 ± 1.3 | 
Ac-IGKEFKRIVERIKRFLRELVRPLR-NH2 [Compound P60.4Ac] |  | 3 | 6^b μM | 2 | 3^c μM | 6 | 6^f μM | 18 | >18^e μM |  |  |  |  |  | clinical signs, body weight, hematology, clinical biochemistry and macroscopic examination, MTD phase [11, 23]: no clear peptide related findings; mortality, MTD phase [11, 23]: no mortality occurred; clinical signs and body weight, dose escalation phase [11, 24]: no clear deviations; mortality, dose escalation phase [11, 24]: no mortality occurred; skin irritation [12]: no skin irritation was detectable; time to complete resolution of conjunctival redness after instillation ([13]; 0.1 ml peptide solution 2 mg/ml into one eye): ≤ 24 h; eye irritation finding after ophthalmic instillation ([13]; 0.1 ml phosphate buffered (pH7.5) peptide solution 2 mg/ml into one eye): redness of the conjunctivae; ABR threshold change ([14]; P60.4-Ac 2 mg/ml in PBS, 22 days after surgery): −7 dB; ABR threshold change ([14]; P60.4-Ac as formulation II, both animals, 22 days): 1 dB
IGKEFKRIVQRIKDFLRNLVPRTE [Compound P60.Ac] | 2.4 ± 0.5 |  |  |  |  |  |  |  |  | 3/8 | 4/8 | 1.8 ± 0.8 | 61 ± 36 | 2.1 ± 0.1 | 
